Measurements taken from patent publication US20250281472A1, “OPHTHALMIC COMPOSITION INHIBITING OCCURRENCE OF N-OXOPYRIDINE COMPOUND FOR PREVENTING OR TREATING EYE DISEASE” (Samjin Pharmaceutical Co., Ltd., priority 2021, published 2025).

Assay: Long-term storage of the active ingredient as a liquid eye drop (impurity formation)
Format: physicochemical
From the text: The present invention is to provide a composition capable of providing an eye drop treatment for various eye diseases. For this purpose, the composition has the essential condition of securing the stability of the active ingredient in a liquid state as an eye drop for about six months or more. […] And as a result of confirming a structure of the corresponding impurity, it was confirmed that the impurity is 3-phenyl-4-propyl-1-(N-oxopyridin-2-yl)-1H-pyrazol-5-ol (hereinafter, N-oxopyridine compound), in which an N-oxide structure is formed in a pyridine structure of the active ingredient. If the pH condition is adjusted to a neutral region where the active ingredient is stable, most impurities are controlled to be within about 0.5%. However, it was confirmed that the N-oxopyridine compound drastically increases to a level exceeding about 30% with a decrease in the active ingredient content even when the pH is controlled.

CCCc1c(-c2ccccc2)nn(-c2ccccn2)c1O [3-phenyl-4-propyl-1-(pyridin-2-yl)-1H-pyrazol-5-ol]
level of N-oxopyridine compound (liquid eye drop stored about six months or more, long-term storage condition, pH controlled to neutral region): exceeding 30%
most impurities (other than N-oxopyridine compound) (liquid eye drop, pH adjusted to a neutral region): ≤ 0.5%
